# From patent US20230043407A1, “ELECTROSTATICALLY GATED NANOFLUIDIC MEMBRANES FOR CONTROL OF MOLECULAR TRANSPORT” (THE METHODIST HOSPITAL SYSTEM, priority 2020, published 2023)
# Experiment: In vitro release rate modulation across electrostatically gated nanofluidic membrane
# Conditions: active phases, gate voltage −1.5 V, vs passive phases (0 V); sink 0.01×PBS
# Method: Release modulation experiments were performed with a custom made, two reservoirs fixture comprising of a macro cuvette (sink reservoir) and a drug reservoir. The cuvette was glued with UV epoxy (OG116, Epoxy Technologies, Inc.) to a PMMA (McMaster Carr, Douglasville, Ga.) membrane holder. The drug reservoir (500 μL capacity), made of PMMA, was secured to the membrane holder through 2 SS316L M3 screws. The membrane under testing was clamped between the two PMMA pieces, with 2 O-rings (2418T113, McMaster Carr, Douglasville, Ga.) to avoid solution leakage. The reservoir was capped with a silicone plugs (9277K87, McMaster Carr, Douglasville, Ga.).
# Release modulation experiments were performed using 300 nm membranes with both poly-Si and SiC deposition. […]
# The assembled diffusion fixtures were then loaded in a robotic carousel^20, which is connected to a Cary 50 UV-vis spectrophotometer (Agilent Technologies). Absorbance measurements of the sink reservoir were automatically performed every 5 minutes. […]
# Graphs were plotted and statistical data analyses were performed with GraphPad Prism 8 (version 8.1.1; GraphPad Software, Inc., La Jolla, Calif.). […] Statistical significance was determined using paired t-tests. […]
substance,measurement,value
Alexa Fluor 647 [AF647],reduction of release rate,60%
